Source: PubChem BioAssay (NCI)
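Exposure lasted 48 hours, with cells grown in 96-well plates and compounds tested at five concentrations. GI50 marks 50% less growth. TGI marks complete inhibition of growth.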

Assays:
Assay in all cases: NCI tumour cell line growth inhibition, 48 h
MDA-N = test system: MDA-N
DLD-1 colon = test system: DLD-1 colon
DMS 273 small cell lung = test system: DMS 273 small cell lung
KM20L2 colon = test system: KM20L2 colon
LXFL 529 NSCLC = test system: LXFL 529 NSCLC
XF 498 CNS = test system: XF 498 CNS
HOP-18 NSCLC = test system: HOP-18 NSCLC
DMS 114 small cell lung = test system: DMS 114 small cell lung
RXF-631 renal = test system: RXF-631 renal

| Compound | TGI (MDA-N) [µM] | TGI (DLD-1 colon) [µM] | TGI (DMS 273 small cell lung) [µM] | TGI (KM20L2 colon) [µM] | TGI (LXFL 529 NSCLC) [µM] | TGI (XF 498 CNS) [µM] | GI50 (DMS 273 small cell lung) [µM] | GI50 (HOP-18 NSCLC) [µM] | TGI (HOP-18 NSCLC) [µM] | GI50 (KM20L2 colon) [µM] | TGI (DMS 114 small cell lung) [µM] | TGI (RXF-631 renal) [µM] | GI50 (DLD-1 colon) [µM] | GI50 (LXFL 529 NSCLC) [µM] | GI50 (DMS 114 small cell lung) [µM] |
| --- | --- | --- | --- | --- | --- | --- | --- | --- | --- | --- | --- | --- | --- | --- | --- |
| CCCCCC/C=C\CCCCCCCCCc1cccc(OC)c1O | > 100 |  |  |  |  |  |  |  |  |  |  |  |  |  |  |
| CCOc1cc(CCNC)c2c(ccc3ccc(OC)c(O)c32)c1OC | 10.5 |  |  |  |  |  |  |  |  |  |  |  |  |  |  |
| CC(C)(C)CC(C)(C)c1cc2c(O)c(c1)Cc1cc(C(C)(C)CC(C)(C)C)cc(c1O)Cc1cc(C(C)(C)CC(C)(C)C)cc(c1O)Cc1cc(C(C)(C)CC(C)(C)C)cc(c1O)Cc1cc(C(C)(C)CC(C)(C)C)cc(c1O)Cc1cc(C(C)(C)CC(C)(C)C)cc(c1O)Cc1cc(C(C)(C)CC(C)(C)C)cc(c1O)Cc1cc(C(C)(C)CC(C)(C)C)cc(c1O)C2 |  | > 100 | > 100 | > 100 | > 100 | > 100 |  |  |  |  |  |  |  |  |  |
| CC(C)CCCC(C)[C@H]1CCC2C3CC=C4C[C@@H](OC(=O)CC(CC(=O)[O-])C(=O)[O-])CC[C@]4(C)C3CC[C@@]21C.N.N.[Pt+4] (some centres undefined) |  |  | > 100 | > 100 |  |  | > 100 | > 100 | > 100 | > 100 |  |  |  |  |  |
| O=C(O)c1ccccc1C(=O)Nc1cc2c(cc1Br)-c1ccccc1C2=O | > 100 |  |  |  |  |  |  |  |  |  |  |  |  |  |  |
| O=C(/C=C/c1ccco1)N1CCN(Cc2ccccc2)CC1 |  | > 100 | > 100 | > 100 | > 100 | > 100 |  |  | > 100 |  | > 100 | > 100 |  |  |  |
| COC(=O)C1OC(SCCN)C(O)C(O)C1O (centres undefined) | > 100 |  |  |  |  |  |  |  |  |  |  |  |  |  |  |
| CCOc1ccc2c(c1)[n+]([O-])c(-c1ccc([N+](=O)[O-])cc1)c(N)[n+]2[O-] |  | > 100 | > 100 | > 100 | > 100 |  |  |  | > 100 |  | > 100 | > 100 |  |  |  |
| Cn1c(=S)c2[nH]c(SCc3cccnc3)nc2n(C)c1=O | > 100 |  |  |  |  |  |  |  |  |  |  |  |  |  |  |
| Cn1c(=O)c2[nH]c(CCS)nc2n(C)c1=O | > 100 |  |  |  |  |  |  |  |  |  |  |  |  |  |  |
| COc1ccccc1C(=O)Nc1ccc(Cl)c(C(=O)OC(C)C)c1 | > 100 |  | > 100 | > 100 |  | 54.7 |  |  | > 100 |  | 63.8 | > 100 |  |  |  |
| COc1cc2ccnc(-c3n[nH]c4cc(OC)c(OC)cc34)c2cc1OC |  |  | > 100 | > 100 | > 100 | > 100 |  |  | > 100 |  | > 100 | 93.4 |  |  |  |
| N#CC1=C(N)Oc2c(ccc3cccnc23)C1c1ccccc1 (centres undefined) |  | > 100 | > 100 |  | > 100 | 77.7 |  |  | > 100 |  | 7.98 |  |  |  |  |
| CC(C)(C)c1cc(C#N)c2c(c1)C(=O)OC2(c1ccccc1)c1ccccc1C#N (centres undefined) |  | > 100 | > 100 | > 100 | > 100 | > 100 |  |  | > 100 |  | > 100 |  |  |  |  |
| O=C(Cc1ccccc1)N/N=C(/c1nc2ccc([N+](=O)[O-])cc2[nH]c1=O)C(O)c1ccco1 (centres undefined) |  | > 100 |  |  | > 100 | > 100 |  |  | > 100 |  | > 100 |  |  |  |  |
| CSc1ccc(NC(=O)CCl)cc1 | > 10 |  |  |  |  |  |  |  |  |  |  |  |  |  |  |
| OCC(O)C(OC1OC(CO)C(O)C(O)C1O)c1nn(-c2ccc(Cl)cc2)c2nc3cc(Cl)c(Cl)cc3nc12 (centres undefined) |  | > 100 |  | > 100 | > 100 | > 100 |  |  |  |  | > 100 |  |  |  |  |
| NC(=O)/C=C/c1c[nH]c2nccnc12 | > 75.2 | 4.83 | 10.5 | 1.35 | 0.611 |  |  |  | 0.793 |  | 8.53 |  |  |  |  |
| CC(C(=O)c1ccc(O)cc1)C1(O)C(=O)Nc2c(Cl)cc(Cl)cc21 (centres undefined) |  | > 100 | > 100 | > 100 | > 93.7 | 47.8 |  |  |  |  | 24.2 | > 100 |  |  |  |
| [N-]=[N+]=Nc1nnc(CCCCc2nnc(N=[N+]=[N-])o2)o1 |  | > 100 |  | > 100 | > 100 | > 100 |  |  | > 100 |  | > 100 | 58.1 |  |  |  |

| Compound | TGI (MDA-N) [µM] | TGI (DLD-1 colon) [µM] | TGI (DMS 273 small cell lung) [µM] | TGI (KM20L2 colon) [µM] | TGI (LXFL 529 NSCLC) [µM] | TGI (XF 498 CNS) [µM] | GI50 (DMS 273 small cell lung) [µM] | GI50 (HOP-18 NSCLC) [µM] | TGI (HOP-18 NSCLC) [µM] | GI50 (KM20L2 colon) [µM] | TGI (DMS 114 small cell lung) [µM] | TGI (RXF-631 renal) [µM] | GI50 (DLD-1 colon) [µM] | GI50 (LXFL 529 NSCLC) [µM] | GI50 (DMS 114 small cell lung) [µM] |
| --- | --- | --- | --- | --- | --- | --- | --- | --- | --- | --- | --- | --- | --- | --- | --- |
| C#CCn1c2c(c3ccccc3c1=O)C(=O)c1ccccc1-2 | > 100 |  |  |  |  |  |  |  |  |  |  |  |  |  |  |
| CC/C(=N/O)C(C)C(=O)CCC(=O)Nc1ccc(Cl)cc1 (centres undefined) |  | > 100 | > 100 | > 100 | > 100 | > 100 |  |  | > 100 |  | > 100 |  |  |  |  |
| C=CCC(O)c1cc(OC)ccc1OC (centres undefined) |  |  | > 100 |  | > 100 | > 100 |  |  |  |  | > 100 | > 100 |  |  |  |
| COC(=O)c1ccc(N/C=C(/C#N)c2ccsc2)cc1 |  | > 100 | 37.4 | 28.1 | 37.5 |  |  |  |  |  | 43.8 |  |  |  |  |
| CNC(=O)NCCCCC(NC(=O)OCc1ccccc1)C(=O)OCc1ccccc1 (centres undefined) |  | > 100 | > 100 | > 100 | > 100 | 33.2 |  |  |  |  | 65.7 | 46.1 |  |  |  |
| COc1ccc2c3c1OC1C4(CCC5C(C2)N(CC2CC2)CCC351)OCCO4 (centres undefined) | > 100 |  |  |  |  |  |  |  |  |  |  |  |  |  |  |
| CC[C@H](C)C(=O)O[C@H]1C[C@@H](C)C=C2C=C[C@H](C)[C@H](CC[C@@H]3C[C@@H](O)CC(=O)O3)[C@H]21 |  | > 30 | > 30 | > 30 | > 30 |  |  |  | > 30 |  | > 30 |  |  |  |  |
| CC1=C(C(=O)NCc2ccccc2)C(c2ccc(N(C)C)cc2)C(C(=O)NCc2ccccc2)=C(C)N1 |  | > 100 | > 100 | > 100 | > 100 | > 100 |  |  |  |  | > 100 | > 100 |  |  |  |
| NC(CCSCCF)C(=O)O (centres undefined) |  |  | > 100 | > 100 | > 100 |  |  |  | > 100 |  | > 100 |  |  |  |  |
| C=CC(=O)OCCCS(=O)(=O)[O-].C=CC(=O)OCCCS(=O)(=O)[O-].NC1CCCCC1N.[Pt+4] |  | > 25 | > 25 | > 25 | > 25 |  | > 25 | > 25 | > 25 | > 25 |  |  | > 25 | > 25 |  |
| COc1ccc(C2C(C(=O)O)=C(CO)Oc3cc4c(cc32)OCO4)c(OC)c1 (centres undefined) |  | > 100 | > 100 | > 100 |  | > 100 |  |  | > 100 |  | > 100 | > 100 |  |  |  |
| O=C(CC(=O)c1cccc2ccccc12)C(=O)Nc1nccs1 |  | > 100 | > 100 | > 100 | > 100 |  |  |  | > 100 |  |  |  |  |  |  |
| CCOC(=O)C1=C(Nc2cccc3ccccc23)OCC1=O |  | > 100 | > 100 | > 100 | > 100 | > 100 |  |  |  |  |  | > 100 |  |  |  |
| C#CCOCn1cnc2c(N)ncnc21 |  | > 100 | > 100 | > 100 | > 100 | > 100 |  |  | > 100 |  | > 100 | > 100 |  |  |  |
| O=c1c2cc(Br)ccc2n(C2OC(CO)C(O)C(O)C2O)c(=S)n1-c1ccccc1 (centres undefined) |  | > 100 |  | > 100 | > 100 | > 100 |  |  | > 100 |  | > 100 |  |  |  |  |
| CC1=CC[C@@H]2C(=O)C=CC=C[C@H]12.[C-]#[O+].[C-]#[O+].[C-]#[O+].[Fe] |  | > 100 |  | > 100 |  |  |  | > 100 | > 100 | > 100 | > 100 |  | > 100 |  | > 100 |
| Cc1c(-c2cc(-c3ccccc3)n[nH]c2=O)c2ccccc2n1C |  | > 100 | > 100 | > 100 | > 100 | > 100 |  |  | > 100 |  | > 100 |  |  |  |  |
| CC(C)=CC1(C)/C(=N\O)C(C)(CC(C)C)C(=O)N1O (centres undefined) |  | > 100 | > 100 | > 100 | > 100 | > 100 |  |  |  |  | > 100 | > 100 |  |  |  |
| CCCCCCCCCCCc1cc(=O)c2c(O)cccc2o1 |  | > 100 | > 100 |  | > 100 | > 100 |  |  | > 100 |  | > 100 | > 100 |  |  |  |
| COc1ccccc1NC(=O)C1=C(C)NC(C)=C(C(=O)Nc2ccccc2OC)C1c1ccc(C2C(C(=O)Nc3ccccc3OC)=C(C)NC(C)=C2C(=O)Nc2ccccc2OC)cc1 |  | 2.66 | 8.67 | 3.39 | 5.09 | 5.64 |  |  | 31.9 |  | 21.6 | 13.7 |  |  |  |
